Reference: US12402627B2, “Metal complexes for promoting growth in a photosynthetic organism” (Imperial College Innovations Limited, priority 2018, dated 2025)

Columns and labels:
[1] = Kinetic measurement of HCO3− dehydration via stopped flow; type: biochemical; conditions: for Dehydration kobs: pH 7.4, 25° C.
Source text: (§1) The hydration and dehydration rate measurements were undertaken by detecting the associated pH change through the use of an appropriate colorimetric pH indicator via stopped-flow equipment (Applied Photophysics SX-20 Stopped-flow Spectrometer) as described by B. H. Gibbons et al. (J. Biol. Chem., 238(10), (1963), 3502-3507). The pH time-dependence of CO2 hydration or HCO3− dehydration was observed via the absorbance change of a buffered indicator solution in order to measure the change in Vhydr/dehydr over a concentration range of zinc mimic, and to determine the observed rate constant (kobs) for each reaction.
(§2) Following the procedure reported by K. Nakata et al. (J. Inorg. Biochem., 89, (2002), 255-266), a 0.1 M buffer solution containing 10×10^−5M indicator, 0.2 M NaClO4 and varying concentrations of the zinc complex in DMSO 1:9 H2O were loaded into one syringe and a CO2 or HCO3− aqueous solution in the other. […] The saturated solution was diluted appropriately to give the desired concentration of CO2. HCO3− solutions were prepared by dissolving NaHCO3 in water to give the desired concentration of HCO3−. The buffer-indicator pairs were chosen based upon their similar pKa's, and the pH of the buffer-indicator solution was adjusted to match these pKa's to maximize sensitivity to pH change (see Table 2).
(§3) Upon mixing of the two syringes, the change in absorbance over time was measured at 25° C. For each buffer solution employed over the tested pH range, the buffer factor (change in absorbance vs concentration of HCl/NaOH) and linearity of CO2 and HCO3− (change in absorbance vs concentration of CO2/HCO3−) were determined as controls.
(§4) Based upon the linearity of the response between CO2 or HCO3− concentration and change in absorbance, appropriate concentrations of CO2 or HCO3− were chosen within the linear range for the subsequent complex runs. At each concentration of complex, the Vhydr (rate of hydration) and Vdehyd (rate of dehydration) was measured and kobs (observed rate constant) was calculated as per the procedure of by K. Nakata et al. (J. Inorg. Biochem., 89, (2002), 255-266).
(§5) Briefly, Vhyd/dehyd=−Q(A0−Ae)[d(In(A−Ae))/dt]t→0, where Q=buffer factor. The function [d(In(A−Ae))/dt]t→0 was taken from fitting the first linear portion of the time-dependent absorbance data with a single exponential decay function. kobs was calculated as the slope of the linear fit between mimic concentration and Vhyd/dehyd/[S]. kcat (catalytic rate constant) was calculated as the pH independent catalyst rate constant as per K. Nakata et al. (J. Inorg. Biochem., 89, (2002), 255-266) and L. Koziol et al. (Inorg. Chem., 51(12), (2012) 6803-12) for the hydration reaction (kcat=kobs×(([H^+]/Ka)+1)), and Y.-J. Sun et al. (Inorg. Chem. Commun., 7(2), (2004), 165-168) for the dehydration reaction (kcat=(kobs×([H^+]+Ka))/[H^+]). Each run of 3 repeats was undertaken 3 times and the average taken, to give N=9.

[2] = Kinetic measurement of CO2 hydration via stopped flow; type: biochemical; conditions: pH 7.4; for Hydration kobs: 25° C.
Source text: as §1, §2, §3, §4, §5

Rubisco = target: T1, Rubisco (Spinacia oleracea, UniProt P00875); experiment: Effect of zinc mimics on Rubisco activity (non-radioactive microplate assay, 3-PGA/NADH oxidation); type: biochemical; conditions: pH 8; 0-50 μM zinc mimic; FIGS. 4 to 7
T1 construct: from tissue; purified by the cited method of O'Donnelly et al., Plant Methods 2014
Protocol: Rubisco was purified using hydrophobic interaction chromatography as per the method of K. O'Donnelly et al. (Plant methods, 10, (2014), 17). For all assays, the rate was determined using a non-radioactive microplate-based assay, which determines the product 3-phosphoglycerate (3-PGA) through the oxidation of NADH by optical density measurements at 340 nm at 25° C., adapted from R. Sulpice et al. (Plant Cell Environ., 30(9), (2007), 1163-75) and K. O'Donnelly et al. (Plant methods, 10, (2014), 17). A Thermo Scientific Varioskan Flash Multimode microplate reader was used to monitor the oxidation of NADH for 15 minutes every 100 ms.
The enzymological properties of Rubisco were typically measured as follows: 10 μL Rubisco and 10 μL of initial buffer were incubated for 15 mins, after which 10 μL of ribulose 1,5-biphosphate (RuBP) was added [Final concentrations for Rubisco assay in 30 μL total volume were 0, 10, 20, 40, 80, 150, 300 and 500 μM RuBP, 0.02 mg/mL Rubisco, 100 mM tricine (pH 8.0/NaOH), 20 mM MgCl2, 2 mM EDTA and 10 mM NaHCO3]. […] The activity was calculated as μmol·min^−l·mg^−1 using a calibration curve with 3PGA. […]
10 μL of Rubisco and 10 μL of pH 8 initial buffer containing varying concentrations of zinc complex were incubated in a 96 well plate for 15 mins. […] The final pH, after the addition of NaHCO3, and before the addition of Rubisco, was measured as pH 8.0. […]

[3] = system: spinach (Spinacia oleracea L.); experiment: Effect of zinc mimics on spinach growth (number of new leaves); type: in vivo; conditions: 1.5 mM in DMSO or H2O, 5 μl droplets to each leaf, three times a week for two weeks, FIG. 8
Protocol: Commercial cultivar spinach seeds (Spinacia oleracea L.) were planted in soil mixture of “John Innes Inc. seed sowing compost No2”: Vermiculite (4:1) in small pots. Spinach seeds were germinated in a Sanyo MLR-352 growth chamber under day (photosynthetically active photon flux density (PPFD) at 110-130 μmol·m-2s-1) and night conditions, changing every 12 hours. Air temperature was maintained at 20° C. and 15° C. during day and night conditions, respectively, with a constant relative humidity at 65%. Spinach plants were irrigated three times a week. At the second true leaf stage (approximately 3 weeks from seed germination), the seeds were transferred into larger singular pots in “John Innes No2—Potting on compost” soil. No extra fertilizer was added.
At the fourth true leaf stage (roughly 4-6 weeks after germination), the treatment (1.5 mM in DMSO or H2O) was applied directly to each leaf of the plant in 5 μl droplets using a Brand Handystep S. The treatments were applied three times a week (directly after irrigation) for two weeks. The leaf stage and the state of the leaves were observed throughout the treatment period.

[4] = high substrate concentration (16.9 mM)
[5] = low substrate concentration (1.69 mM)

Compound | Dehydration kobs [1, 4] [M⁻¹ s⁻¹] | Dehydration kobs [1, 5] [M⁻¹ s⁻¹] | Hydration:Dehydration Ratio [2, 4] | Hydration kobs [2, 4] [M⁻¹ s⁻¹] | Hydration:Dehydration Ratio [2, 5] | Hydration kobs [2, 5] [M⁻¹ s⁻¹] | rubisco activity (Rubisco) | specificity toward dehydration ([1]; from the results in Tables 3 and 4, pH 7.4) | number of new leaves [3]
O.[O-][Cl+3]([O-])([O-])[O-].[O-][Cl+3]([O-])([O-])[O-].[Zn+2].c1ccc2sc(CNCc3nc4ccccc4s3)nc2c1 [Zn2S, zinc complex of bis(2-benzothiazolylmethyl)amine] | 30.6 ± 0.6 | 115.2 ± 1.8 | 0.57 | 17.5 ± 8.6 | 3.01 | 347.1 ± 33.0 |  |  | 
O.[O-][Cl+3]([O-])([O-])[O-].[O-][Cl+3]([O-])([O-])[O-].[Zn+2].c1ccc2sc(CN(Cc3nc4ccccc4s3)Cc3nc4ccccc4s3)nc2c1 [Zn3S, zinc complex of tris(2-benzothiazolylmethyl)amine] | 37.8 ± 0.8 | 140.8 ± 4.8 | 0.65 | 24.5 ± 10.4 | 3.05 | 429.7 ± 51.2 | significant improvement in activity |  | 
zinc complex of bis(2-benzimidazolylmethyl)(2-benzothiazolylmethyl)amine [Zn2N1S] | 44.6 ± 1.6 | 157.6 ± 2.1 | 0.60 | 26.6 ± 11.1 | 3.14 | 495.4 ± 34.0 |  |  | 
zinc complex of bis(2-benzimidazolylmethyl)amine [Zn2N] | 27.5 ± 0.5 | 94.1 ± 1.6 | 0.80 | 22.0 ± 9.3 | 3.94 | 370.6 ± 13.4 |  |  | 
zinc complex of bis(2-benzothiazolylmethyl)(2-benzimidazolylmethyl)amine [Zn1N2S] | 51.9 ± 0.5 | 171.3 ± 4.5 | 0.49 | 25.3 ± 8.4 | 2.57 | 440.8 ± 24.5 | significant improvement in activity | best specificity toward dehydration | 
zinc complex of tris(2-benzimidazolylmethyl)amine [Zn3N] | 33.8 ± 0.8 | 124.1 ± 1.8 | 1.02 | 34.4 ± 11.3 | 4.13 | 512.3 ± 60.3 |  |  | significant improvement in the number of new leaves
